Measurements from article PMC7902475 (Traffic (Copenhagen, Denmark), 2020).
Where a chain is given by its changes, count along the chain named.

Legend:
ALFY-FYVE [1] = molecular target: T1, ALFY-FYVE (Homo sapiens, UniProt Q8IZQ1, E3471K); assay: 1H-15N HSQC NMR titration, chemical shift perturbation fit; format: binding
T1 sequence (Q8IZQ1 3428-3518 E3471K): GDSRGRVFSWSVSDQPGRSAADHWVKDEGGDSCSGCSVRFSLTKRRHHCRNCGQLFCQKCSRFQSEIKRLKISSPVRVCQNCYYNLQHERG

ALFY-FYVE [2] = molecular target: T2, ALFY-FYVE (Homo sapiens, UniProt Q8IZQ1); assay: as above; format: binding
T2 sequence (Q8IZQ1 3428-3518): T1 sequence (Q8IZQ1 3428-3518 E3471K) with K44E

Kd (ALFY-FYVE [1]): 82.8 to 270 µM | Kd (ALFY-FYVE [2]): 50.5 to 184 µM
Compound: O=P(O)(O)O[C@@H]1[C@H](O)[C@H](OP(=O)(O)O)[C@@H](O)[C@H](O)[C@H]1O [Ins(1,3)P2]
